# Assay results as given in paper PMC11181486, “Nonsymmetrically Substituted 1,1′-Biphenyl-Based Small Molecule Inhibitors of the PD-1/PD-L1 Interaction” (ACS Medicinal Chemistry Letters, 2024).
# Where two headings read alike, the source gives them in different places.
# Experiments:
# PD-1/PD-L1 [1] = molecular target: T1, PD-1/PD-L1 (Homo sapiens, UniProt Q9NZQ7); assay: Homogeneous time-resolved fluorescence (HTRF) PD-1/PD-L1 assay (CisBio kit); assay type: binding; set-up: Tag1 or Tag2 (kit's undisclosed tag); purchased CisBio; settings: for remaining activity at 0.005 µM: 2 h, read-out: HTRF Fraction of the undissociated protein complex
# Experimental: The certified CisBio kit was used to conduct the HTRF assay, adhering to the manufacturer’s guidelines. The assay setup comprised hPD-1, hPD-L1, anti-Tag1 tagged with Europium cryptate (HTRF donor), and anti-Tag2 tagged with XL665 (HTRF acceptor). The experiments utilized final concentrations of 5 nM hPD-L1 and 50 nM hPD-1 in a 20 μL total volume performed in triplicate. Per the CisBio instructions, all components were combined, the plate was incubated at ambient temperature for 2 h, and the TR-FRET (time-resolved fluorescence energy transfer) was carried out using the Tecan Spark 20M. The negatives in the acquired data were subtracted for background, the positives were standardized, and then the data were averaged.
# of 50 mM of the compound. Samples were then diluted to 50 nM and used for measurements.
# Target sequence in this assay (Q9NZQ7 19-238 limits assumed): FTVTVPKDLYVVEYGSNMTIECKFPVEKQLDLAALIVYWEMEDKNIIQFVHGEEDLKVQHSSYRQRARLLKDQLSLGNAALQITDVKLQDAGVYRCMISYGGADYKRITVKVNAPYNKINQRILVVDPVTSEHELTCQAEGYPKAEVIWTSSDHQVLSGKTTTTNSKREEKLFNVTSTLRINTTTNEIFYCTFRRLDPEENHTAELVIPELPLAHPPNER
# PD-1/PD-L1 [2] = molecular target: T1, PD-1/PD-L1; assay: cell-based; set-up: host or cells: PD-L1+ aAPC/CHO-K1 cells; PD-1 effector Jurkat cells
# Experimental: The PD-1/PD-L1 immune checkpoint bioassay (PD-1/PD-L1 Bioassay, Promega) was conducted according to the manufacturer’s protocol. PD-L1+ aAPC/CHO-K1 cells were seeded at a density of […] in 100 μL of medium [Ham’s F12, 10% fetal bovine serum (FBS)] in 96-well white flat-bottomed plates and incubated overnight at 37 °C in the presence of 5% CO2. The next day, the medium was removed, and serial dilutions of small molecule inhibitors were added at 40 μL per well in assay buffer (RPMI1640 + 1% FBS + 1% DMSO). […] The cells were cocultured for 6 h at 37 °C with 5% CO2 followed by a 5 min equilibration at room temperature. Bio-Glo Reagent (Promega) was prepared and added at 80 μL per well. After a 15 min incubation at room temperature, luminescence was measured using a Tecan Spark microplate reader. Data are presented as fold induction of luminescence relative to DMSO-treated cells. EC50 values were calculated using the log(inhibitor) vs response variable slope (four-parameter) analysis model with GraphPad Prism software.
# Target sequence in this assay (Q9NZQ7 19-290): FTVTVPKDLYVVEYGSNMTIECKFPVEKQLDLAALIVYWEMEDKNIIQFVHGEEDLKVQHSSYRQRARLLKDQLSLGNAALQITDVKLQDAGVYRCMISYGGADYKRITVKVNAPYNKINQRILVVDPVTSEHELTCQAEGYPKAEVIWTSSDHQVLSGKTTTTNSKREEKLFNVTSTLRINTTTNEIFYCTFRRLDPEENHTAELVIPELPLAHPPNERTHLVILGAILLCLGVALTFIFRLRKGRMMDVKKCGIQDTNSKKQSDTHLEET
# [3] = Solubility of the compounds (visual evaluation and A600 of dilutions); assay type: physicochemical; settings: for A600 measurement (averaged from 2 reps): absorbance at 600 nm, 96-well plate, blank 0.0472, values in parentheses unreliable (precipitate); for solubility: kinetic from dmso stock, dilutions from DMSO stock, visually evaluated
# Experimental: compound was 500 nM). The dilutions were then visually evaluated according to the following […]
# +++ clear solution, no precipitation
# ++ slight turbidity, no precipitate
# + visible turbidity, no precipitate.
# +/- strong turbidity, no precipitation.
# - visible precipitation and/or visible precipitation in the original 100% DMSO solution.
# The dilutions prepared in this way were applied to a 96-well plate and the absorbance measured […]
# at a wavelength of 600 nm.
# Table S2, Blank of 10 Measurements.
# Table S2. Solubility of the compounds
# hPD-L1 (human PD-L1) = molecular target: T2, hPD-L1 (human PD-L1) (Homo sapiens, UniProt Q9NZQ7); assay: 1H NMR titration with hPD-L1; assay type: binding; settings: molar ratio protein to compound 1:1
# T2 construct: The human PD-L1 IgV domain (residues 18–134, C-terminal His-tag) was expressed and purified; His-tag (C); made in house
# T2 sequence (Q9NZQ7 18-134): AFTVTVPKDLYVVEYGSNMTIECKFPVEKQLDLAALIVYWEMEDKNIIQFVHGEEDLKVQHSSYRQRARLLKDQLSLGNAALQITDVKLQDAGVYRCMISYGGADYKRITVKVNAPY
# Experimental: Representative molecules were evaluated for their interaction with PD-L1 by means of an ^1H NMR titration experiment.
# hPD-1/hPD-L1 complex = molecular target: T3, hPD-1/hPD-L1 complex (Homo sapiens, UniProt Q9NZQ7); assay: PD-1/PD-L1 NMR-based antagonist-induced dissociation assay (AIDA); assay type: binding; settings: complex of hPD-1/hPD-L1 with compound, 1:1 molar ratio protein to compound
# T3 construct: The human PD-L1 IgV domain (residues 18–134, C-terminal His-tag) was expressed and purified; His-tag (C); made in house
# T3 sequence (Q9NZQ7 18-134, one chain of several): as the sequence (Q9NZQ7 18-134) above
# Experimental: In addition, we performed a PD-1/PD-L1 NMR-based antagonist-induced dissociation assay (AIDA).[42],[43] The AIDA assay was performed by adding a slight molar excess of PD-L1 to PD-1, which causes ^1H NMR signals to broaden corresponding to complex formation (Figure 2). […] However, in Figure 2 (purple), these are obscured by the sharper NMR signals of monomeric PD-1 released from the PD-L1/PD-1 complex.
# Figure 2 NMR-based AIDA assay showing that a compound displaces PD-1 from PD-L1.
# PD-1/PD-L1 [4] = molecular target: T1, PD-1/PD-L1; set-up: host or cells: PD-L1+ aAPC/CHO-K1 cells; PD-1 effector Jurkat cells; settings: Figure S2B; ref Koblish et al.; cited from earlier work
# Target sequence in this assay (Q9NZQ7 19-290): as the sequence (Q9NZQ7 19-290) above
# [5] = at the 5 nM concentration of the inhibitor, 5 nM hPD-L1, 50 nM hPD-1
# [6] = PD-L1+ aAPC/CHO-K1 cells cocultured 6 h with PD-1 effector Jurkat cells, read-out: PD-1/PD-L1 blockade, NFAT reporter bioassay EC50
Structure (SMILES),EC50 (PD-1/PD-L1 [2]; [6]) [nM],A600 measurement (averaged from 2 reps) [3],solubility [3] [µM],further results
"Cc1c(COc2cc(OCc3cccc(C#N)c3)c(CN3C[C@H](O)C[C@@H]3C(=O)O)cc2Cl)cccc1-c1ccc2c(c1)OCCO2 [BMS-1166, reference compound]",,,,HTRF Fraction of the undissociated protein complex (PD-1/PD-L1 [1]; [5]): 0.59
"Cc1c(NC(=O)c2ccc(CNCCO)cn2)cccc1-c1cccc(NC(=O)c2ccc(CNCCO)cn2)c1C [Cmpd A, reference compound]",14.7,,,remaining activity at 0.005 µM (PD-1/PD-L1 [1]; [5]): 18%
Cc1c(NC(=O)c2ccc(CN[C@@H]3CCC[C@H]3O)cn2)cccc1-c1cccc(NC(=O)c2ccc(CN(C)CCO)cn2)c1C [Compound 1],,0.5138,< 500,
Cc1c(NC(=O)c2ccc(CN[C@@H](C)CO)cn2)cccc1-c1cccc(NC(=O)c2ccc(CN(C)CCO)cn2)c1C [Compound 2],21.8,0.4023,< 500,IC50 (PD-1/PD-L1 [1]): 1.46 nM; remaining activity at 0.005 µM (PD-1/PD-L1 [1]; [5]): 42%
Cc1c(NC(=O)c2ccc(CN[C@@H](C)CO)cn2)cccc1-c1cccc(NC(=O)c2ccc(CN(C)CCO)cn2)c1C.Cl.Cl.Cl [Compound 2a],25,0.1517,< 500,
Cc1c(NC(=O)c2ccc(CNCCCO)cn2)cccc1-c1cccc(NC(=O)c2ccc(CN(CCO)CCO)cn2)c1C [Compound 3],251,0.2786,< 500,EC50 (PD-1/PD-L1 [2]): ~200 nM
Cc1c(NC(=O)c2ccc(CN[C@@H]3CCC[C@H]3O)cn2)cccc1-c1cccc(NC(=O)c2ccc(CN(CCO)CCO)cn2)c1C [Compound 4],,0.2271,< 500,
Cc1c(NC(=O)c2ccc(CNCCCO)cn2)cccc1-c1cccc(NC(=O)c2ccc(CN(C)C(CO)CO)cn2)c1C [Compound 5],110,0.04735,< 500,EC50 (PD-1/PD-L1 [2]): ~200 nM
COC(=O)[C@H](C)NCc1ccc(C(=O)Nc2cccc(-c3cccc(NC(=O)c4ccc(CN5CCCC5)cn4)c3C)c2C)nc1 [Compound 6],,0.0627,< 500,
Cc1c(NC(=O)c2ccc(CNCCCO)cn2)cccc1-c1cccc(NC(=O)c2ccc(CN(C)CCO)cn2)c1C [Compound 7],,0.3466,< 500,
Cc1c(NC(=O)c2ccc(CN(C)CCO)cn2)cccc1-c1cccc(NC(=O)c2ccc(CN(CCO)CCO)cn2)c1C [Compound 8],,0.459,< 500,
Cc1c(NC(=O)c2ccc(CNCCCO)cn2)cccc1-c1cccc(NC(=O)c2ccc(CN3CCC(O)CC3)cn2)c1C [Compound 9],188,0.09395,< 500,remaining activity at 0.005 µM (PD-1/PD-L1 [1]; [5]): 26%; EC50 (PD-1/PD-L1 [2]): > 180 nM
Cc1c(NC(=O)c2ccc(CN[C@@H](C)CO)cn2)cccc1-c1cccc(NC(=O)c2ccc(CN3CCC(O)CC3)cn2)c1C [Compound 10],287,0.1308,< 500,remaining activity at 0.005 µM (PD-1/PD-L1 [1]; [5]): 30%; EC50 (PD-1/PD-L1 [2]): > 180 nM
Cc1c(NC(=O)c2ccc(CN[C@@H]3CCC[C@H]3O)cn2)cccc1-c1cccc(NC(=O)c2ccc(CN3CCC(O)CC3)cn2)c1C [Compound 11],553,0.1117,< 500,remaining activity at 0.005 µM (PD-1/PD-L1 [1]; [5]): 43%; EC50 (PD-1/PD-L1 [2]): > 180 nM
Cc1c(NC(=O)c2ccc(CNCCCO)cn2)cccc1-c1cccc(NC(=O)c2ccc(CN[C@@H]3CCC[C@H]3O)cn2)c1C [Compound 12],,0.0476,> 500,
Cc1c(NC(=O)c2ccc(CN[C@@H](C)CO)cn2)cccc1-c1cccc(NC(=O)c2ccc(CN[C@@H]3CCC[C@H]3O)cn2)c1C [Compound 13],,0.1827,< 500,
Cc1c(NC(=O)c2ccc(CNCCCO)cn2)cccc1-c1cccc(NC(=O)c2ccc(CN[C@@H](C)CO)cn2)c1C [Compound 14],,0.05315,> 500,effect on hPD-L1 1H NMR lines (broadening) (hPD-L1 (human PD-L1)): oligomerization
Cc1c(NC(=O)c2ccc(CNCCO)cn2)cccc1-c1cccc(NC(=O)c2ccc(CNCCNS(C)(=O)=O)cn2)c1C [Compound 16],,0.0494,> 500,
Cc1c(NC(=O)c2ccc(CNCCO)cn2)cccc1-c1cccc(NC(=O)c2ccc(CNCCCNS(C)(=O)=O)cn2)c1C [Compound 17],65.8,0.2217,< 500,effect on hPD-L1 1H NMR lines (broadening) (hPD-L1 (human PD-L1)): oligomerization
Cc1c(NC(=O)c2ccc(CNCCO)cn2)cccc1-c1cccc(NC(=O)c2ccc(CNCCCNS(C)(=O)=O)cn2)c1C.Cl.Cl.Cl.Cl [Compound 17a],76.3,0.2848,< 500,AIDA rescue percentage of the PD-1 signal (hPD-1/hPD-L1 complex): 100%; effect on hPD-L1 1H NMR lines (broadening) (hPD-L1 (human PD-L1)): oligomerization; IC50 (PD-1/PD-L1 [1]): 3.06 nM; dissociation of the PD-1/PD L1 complex (HTRF) (PD-1/PD-L1 [1]; 5 nM inhibitor concentration): 83%; undissociated complex in the HTRF assay (PD-1/PD-L1 [1]; 5 nM inhibitor concentration): 17%
Cc1c(Nc2nccc3cc(CN4CC[C@@H](O)C4)cnc23)cccc1-c1cccc(-c2nc3cc(CN4CC[C@@H](C(=O)O)C4)cc(C#N)c3o2)c1C [INCBO86550],,,,EC50 (PD-1/PD-L1 [4]): 21.4 nM
